# Results from PMC11887451, “Leveraging Immunogenic Cell Death to Enhance the Immune Response against Malignant Pleural Mesothelioma Tumors” (Journal of the American Chemical Society, 2025).
# Tests used:
# [1] = tested on: murine malignant mesothelioma cell line AB12; assay: MTT cytotoxicity assay, 72 h, AB12; format: cell-based, mouse; conditions: exposure time 72 h
# From the text: (§1) Human malignant mesothelioma cancer cell lines JU77 and LO68 were obtained from Cell Bank Australia (Children's Medical Research Institute, Westmead, Australia). Mouse malignant mesothelioma cancer cell line AB12, human nonmalignant mesothelioma cancer cell line Met5A (mesothelial cells), mouse macrophage cell line J774 and human monocytic cell line THP-1 were obtained from American Type Culture Collection (ATCC) (Rockville, MD, USA). Human malignant mesothelioma cell lines VMC23 (epithelial), Meso82 (sarcomatous), Meso92 (biphasic), were kindly provided by Prof. Walter Berger (Medical University of Vienna). All cells except for J774 were cultured in RPMI and J774 cells were cultured in DMEM. Both types of media were supplemented with 10% FBS and 1% penicillin-streptomycin (10,000 U/mL). Cells were grown in tissue culture flasks (75 cm2 and 25 cm2, SPL Life Sciences Co., Ltd., Korea). All cell lines were grown at 37 °C in a humidified atmosphere of 95% air and 5% CO 2 and passaged when they reached 80–90% confluency. All Au stock solutions were prepared in 1% DMSO in the respected medium, ensuring that cell viability was not inhibited.
# (§2) The cytotoxicity of compounds was determined using an MTT colorimetric test. The cells were harvested from culture flasks by trypsinization and seeded into Cellstar 96 -well microculture plates (Greiner Bio -One) at the seeding density of 6000 cells per well (6 × 10^4 cells/mL). After
# (§3) the cells were allowed to resume exponential growth for 16 h, they were exposed to drugs at
# (§4) different concentrations in media for 72 h. The drugs were diluted in a complete medium at the desired concentration added to each well (100 μL) and serially diluted in other wells. After exposure for 72 h, the media was replaced with MTT in media (5 mg/mL, 100 μL/well) and
# (§5) incubated for an additional 50 min. Subsequently, the medium was aspirated, and the purple formazan crystals formed in viable cells were dissolved in DMSO (100 μL/well). Optical densities were measured at 570 nm using a BioTek Synergy H1 microplate and MultiskanTM SkyHigh plate readers. The quantity of viable cells was expressed in terms of treated/control (T/C) values in comparison to untreated control cells, and 50% inhibitory concentrations (IC 50) were calculated from concentration-effect curves by interpolation. An evaluation was based on means from at least three independent experiments, each comprising three replicat es per
# (§6) DMSO had not impact on the cell viability at the concentrations used.
# [2] = tested on: human malignant mesothelioma cell line JU77; assay: MTT cytotoxicity assay, 72 h, JU77; format: cell-based; conditions: exposure time 72 h
# From the text: as §1, §2, §3, §4, §5, §6
# [3] = tested on: human malignant mesothelioma cell line LO68; assay: MTT cytotoxicity assay, 72 h, LO68; format: cell-based; conditions: exposure time 72 h
# From the text: as §1, §2, §3, §4, §5, §6
# [4] = tested on: patient-derived VMC23 cell line (epithelioid MPM); assay: MTT cytotoxicity assay, 72 h, VMC23; format: cell-based, human; conditions: exposure time 72 h
# From the text: as §1, §2, §3, §4, §5, §6
# [5] = tested on: patient-derived Meso84 cell line (sarcomatoid MPM); assay: MTT cytotoxicity assay, 72 h, Meso84; format: cell-based, human; conditions: exposure time 72 h
# [6] = tested on: patient-derived Meso92 cell line (biphasic MPM); assay: MTT cytotoxicity assay, 72 h, Meso92; format: cell-based, human; conditions: exposure time 72 h
# From the text: Cell lines and culture conditions
# Mouse malignant mesothelioma cancer cell line AB12, human nonmalignant mesothelioma cancer cell line Met5A (mesothelial cells), mouse macrophage cell line J774 and human monocytic cell line THP-1 were obtained from American Type Culture Collection (ATCC) (Rockville, MD, USA). Human malignant mesothelioma cell lines VMC23 (epithelial), Meso82 (sarcomatous), Meso92 (biphasic), were kindly provided by Prof. Walter Berger (Medical University of Vienna). All cells except for J774 were cultured in RPMI and J774 cells were cultured in DMEM. Both types of media were supplemented with 10% FBS and 1% penicillin-streptomycin (10,000 U/mL). Cells were grown in tissue culture flasks (75 cm2 and 25 cm2, SPL Life Sciences Co., Ltd., Korea). All cell lines were grown at 37 °C in a humidified atmosphere of 95% air and 5% CO 2 and passaged when they reached 80–90% confluency. All Au stock solutions were prepared in 1% DMSO in the respected medium, ensuring that cell viability was not inhibited. The Au concentration in the stock solutions was confirmed through inductively coupled plasma optical emission spectrometry. The stock solution of pemetrexed (10 mM) was prepared in Milli -Q water.
# Inhibition of c ell viability assay
# as §2, §3, §4, §5
# [7] = tested on: human nonmalignant mesothelioma cell line Met5A; assay: MTT cytotoxicity assay, 72 h, Met5A; format: cell-based; conditions: exposure time 72 h
# HMGB1 in AB12 cells = assay: HMGB1 detection, confocal microscopy; format: cell-based, mouse; conditions: AB12, 5 × IC50
# Experimental: mL per dish). […] Afterwards, the […]
# concentrations for 2 h at 37°C. […]
# were stored in 1 mL of PBS. The confocal images were acquired by Laser Confocal Scanning […]
# dishes were washed twice with 1 mL of PBS. The dishes were then incubated with HMGB1 […]
# washed with 1 mL of PBS. Samples were stored in 1 mL of PBS. The confocal images were acquired by Laser Confocal Scanning Microscope (Leica SPE).
# AB12 cells were seeded into the confocal dish (Biosharp) at a density of 3 × 10^5 cells/well (1 […]
# mL per well). […] The cell culture […]
# medium was aspirated and washed with PBS (2 × 1 ml). In a dimly lit setting, a solution of H2DCFDA (2',7'-dichlorodihydrofluorescein diacetate) in 1 × HBSS (10 μM, 1 mL) was added to each well and allowed to incubate for 15 min at 37 °C. Following this, the H 2DCFDA solution was aspirated and the wells were rinsed with HBSS (2 × 1 ml). Subsequently, the cells were treated with fresh colo urless cell culture medium containing compounds of interest at […]
# Subsequently, the cells were treated with a culture medium containing 1 μM of Mitotracker TM Deep Red, 1 μM ER-Tracker™ Blue-White DPX and 1 μg/mL of Hoechst 33342 for 30 minutes. […] Images were captured using Laser Confocal Scanning Microscope (Leica SPE) and analyzed using the Microscope Software Platform LAS X Life Science. […]
# [8] = tested on: extracellular HMGB1 from AB12 cells; assay: Western blot of extracellular HMGB1 in supernatants; format: cell-based, mouse; conditions: AB12, 5 × IC50, 240 min
# Experimental: cells were lysed with 200 µL of RIPA buffer, scraped, collected into 2 mL microtubes, sonicated for 45 sec on ice and centrifuged at 12000 × g for 20 min at 4 °C.
# Protein concentration was measured by BCA Protein Assay Kit (PierceTM). 30 µg protein were reconstituted in loading buffer (5× Laemmli Buffer with 5% DTT) and heated at 95 °C for 10 min. Subsequently, the protein mixtures were resolved on 10% SDS-PAGE gels (BeyoGelTM)by electrophoresis ( 80 V for 20 min followed by 1 00 V for 60 min) and transferred onto a nitrocellulose membrane (250 mA for 2 h).
# For Western Blot detection of extracellular HMGB1 protein, AB12 cells were seeded into Cellstar 6-well plates (Greiner Bio -One) at a density of 1 × 10^6 cells/well (2 ml per well). […]
# After incubation with HRP-conjugated secondary antibodies (Catalogue Number: 7074P2, Cell Signaling Technology) in 2% BSA (w/v) in wash buffer at RT for 2 h, the membranes were washed with wash buffer 3 times for 5-10 min. Immune complexes were detected with SuperSignal™ West Atto Ultimate Sensitivity Substrate (A38554, Thermo Scientific) and analyzed using enhanced chemiluminescence imaging (Biorad). β-Actin was used as a loading control. […]
# GA5010)). Luminescence was measured using Molecular Devices SpectraMax iD5 plate reader. […] The luminescence data was recorded for a total duration of 6 h following the treatment. […]
# [9] = tested on: AB12 cells in BALB/c mice; assay: In vivo vaccination model; set-up: species or system mouse; conditions: within the first 30 days after vaccination, n = 8
# From the text: Initially, AB12 cells underwent pretreatment with varying concentrations of Au(III) complexes, and the induced cell death and release of desired ICD biomarkers were monitored over time. Upon reaching a cell death rate of 65%–75%, BALB/c mice (n = 8) were subcutaneously injected in the left flank with a vaccine containing 3 × 10^5 of live/dying/dead cells, while the vehicle group received injections of PBS. Seven days postvaccine administration, the immunized mice were rechallenged by inoculating the same number of live AB12 cells (without any prior treatment) into the right flanks (Figure 5A). The progression of tumor growth on the right flanks was monitored using a caliper.
# AB12 cells were seeded into Cellstar 24-well plates (Greiner Bio-One) at a density of 1.8 × 104
# cells/ml (1 ml per well) and allowed to grow exponentially for 16 hours. Subsequently, the
# medium was replaced with 1 ml of fresh medium containing compounds of interest at
# predetermined concentrations (with a minimum of 4 wells per treatment condition). These
# concentrations were selected to induce 65-75% cell death.
# Subsequently, the culture
# medium was aspirated, and the cells were washed twice with 1 mL of PBS. The cell
# concentration was adjusted to 3 × 10^5 cells (including dead/dying/live cells) per 100 μL of PBS,
# and the ratio of dead/live cells was assessed using the Invitrogen Countess 3 cell counter. In
# the subsequent experiment, BALB/c mice (8 mice per group) were subcutaneously injected
# with 0.1 mL of AB12 cells (3 × 10^5 cells/mL, including dead/dying/live cells) or the
# corresponding vehicle (PBS) on the left flank. Tumor growth was monitored daily.
# After 7 days, the mice were subcutaneously injected with
# 0.1 mL of AB12 cells (3 × 10^5 cells/mL, live cells) on the right flank. Regular measurements
# of body weights and tumor sizes were taken. Mice that developed palpable tumors were
# euthanized for further analysis.
# colon cancer cells = tested on: colon cancer cells; set-up: method as in PMID 33237764; conditions: immunocompetent mice; cited from earlier work
# [10] = tested on: hepatocellular carcinoma tumors; set-up: method as in PMID 38261008, PMID 36827091; conditions: cited from earlier work
smiles,measurement,setting,value
CCCC[N+](CCCC)=C1[S][Au-]2([S]1)[c]1ccccc1Cc1cccc[n+]12.F[P-](F)(F)(F)(F)F (stereo not drawn) [2C],IC50,[1],2.7 ± 0.3 µM
same,IC50,[2],2.7 ± 0.4 µM
same,IC50,[3],3 ± 0.3 µM
same,IC50,[4],2.4 ± 0.5 µM
same,IC50,[5],3.9 ± 0.7 µM
same,IC50,[6],3.1 ± 0.7 µM
same,IC50,[7],1.4 µM
same,"HMGB1 expression, confocal microscopy",HMGB1 in AB12 cells,confirmed by confocal microscopy
same,"extracellular HMGB1 in supernatant, Western Blot",[8],presence of extracellular HMGB1
same,mice that developed tumors after vaccination,[9],≈ 50%
Cc1cc(C)c(-n2cc[n+](CCO)[c]2[Au-][c]2n(-c3c(C(C)C)cccc3C(C)C)c3c([n+]2-c2c(C(C)C)cccc2C(C)C)C(=O)c2ccccc2C3=O)c(C)c1 [Au1],tumor-free time of vaccinated mice,colon cancer cells,more than 42 days
CCn1cc[n+](CC)[c]1[Au-][C]#CCOC(=O)[C@@]1(C)CC[C@]2(C)CC[C@]3(C)C(=CC(=O)[C@@H]4[C@@]5(C)CC[C@H](OC(=O)CCCCC[P+](c6ccccc6)(c6ccccc6)c6ccccc6)C(C)(C)[C@@H]5CC[C@]43C)[C@@H]2C1.[Br-] [Au4],tumor-free time of vaccinated mice,[10],more than 30 days
